# Measured values: PMC6915728 (Nature Communications, 2019)
# What was measured:
# [1] = tested on: AMP-evolved E. coli lines; experiment: Cross-resistance / collateral sensitivity: relative MIC change of 38 laboratory-evolved AMP-resistant lines vs parental strain; assay type: cell-based, Escherichia coli; conditions: measured here
# Source text: Here, we extended this dataset by measuring susceptibility changes of the same evolved lines to four additional AMPs using identical protocols to represent AMPs from all four clusters (Supplementary Fig. 15a, see also Methods). Overall, the resulting dataset of susceptibility profiles provides a comprehensive map of cross-resistance and collateral sensitivity between AMPs representing various modes of action.
# To characterize the cross-resistance of the 38 E. coli lineages we obtained relative MIC changes that are, the MIC values of the evolved lines compared to these of the parental strain, from two data sources. First, we used already measured relative MIC changes from Spohn et al. Supplementary data 4[20]. […] Second, we extended this dataset by measuring the relative MIC changes of the same evolved lines to four additional AMPs using identical protocol. […] In this way, AMPs from each cluster were represented in the dataset.
# Supplementary Figure 15. […] Relative change in MIC was determined for each evolved line by comparing its MIC to the ancestral cell line (control). […] CAP18-adaped lines were not included in the analysis because CAP18 is known as a membrane-targeting AMP in the literature. c, Cross-resistance interactions are enriched between membrane-targeting AMPs that are in the same chemical-genetic clusters (i.e. AMP pairs within C1 and within C2 clusters) (Significant difference: ** P = 0.0082 from two-sided Fisher’s exact test, n = 61 and 62 for within cluster and between clusters, respectively). […] Source data are provided as a Source Data file.
# [2] = tested on: E. coli gene overexpression; conditions: gene ptrB overexpressed; ref 2 (Mattiuzzo et al. 2014); cited from earlier work
# Source text: Supplement 41467_2019_13618_MOESM1_ESM.docx, table 1: Supplementary Table 1. Collected examples of E. coli gene overexpression from the literature as a confirmation of our chemical-genetic screen results. | column: Overexpression phenotype
sequence,measurement,setting,value
"RFRPPIRRPPIRPPFYPPFRPPIRPPIFPPIRPPFRPPLGPFP [BAC5, Bactenecin 5, antimicrobial peptide from bovine neutrophils; cluster C4]",Relative change in MIC (MIC of the AMP-adpated line / MIC of the ancestral strain),[1]; AMP-adapted line CAP18_2,1
same,Relative change in MIC (MIC of the AMP-adpated line / MIC of the ancestral strain),[1]; AMP-adapted line CAP18_5,0.915
same,Relative change in MIC (MIC of the AMP-adpated line / MIC of the ancestral strain),[1]; AMP-adapted line CAP18_6,0.915
same,Relative change in MIC (MIC of the AMP-adpated line / MIC of the ancestral strain),[1]; AMP-adapted line CAP18_8,1
same,Relative change in MIC (MIC of the AMP-adpated line / MIC of the ancestral strain),[1]; AMP-adapted line CAP18_10,0.915
same,Relative change in MIC (MIC of the AMP-adpated line / MIC of the ancestral strain),[1]; AMP-adapted line HBD3_3,1
same,Relative change in MIC (MIC of the AMP-adpated line / MIC of the ancestral strain),[1]; AMP-adapted line HBD3_6,0.9167
same,Relative change in MIC (MIC of the AMP-adpated line / MIC of the ancestral strain),[1]; AMP-adapted line HBD3_8,1
same,Relative change in MIC (MIC of the AMP-adpated line / MIC of the ancestral strain),[1]; AMP-adapted line HBD3_10,1
same,Relative change in MIC (MIC of the AMP-adpated line / MIC of the ancestral strain),[1]; AMP-adapted line LL37_1,0.915
same,Relative change in MIC (MIC of the AMP-adpated line / MIC of the ancestral strain),[1]; AMP-adapted line LL37_3,1
same,Relative change in MIC (MIC of the AMP-adpated line / MIC of the ancestral strain),[1]; AMP-adapted line LL37_6,0.915
same,Relative change in MIC (MIC of the AMP-adpated line / MIC of the ancestral strain),[1]; AMP-adapted line LL37_7,1
same,Relative change in MIC (MIC of the AMP-adpated line / MIC of the ancestral strain),[1]; AMP-adapted line LL37_10,0.915
same,Relative change in MIC (MIC of the AMP-adpated line / MIC of the ancestral strain),[1]; AMP-adapted line PEX_1,1.1
same,Relative change in MIC (MIC of the AMP-adpated line / MIC of the ancestral strain),[1]; AMP-adapted line PEX_4,1.1
same,Relative change in MIC (MIC of the AMP-adpated line / MIC of the ancestral strain),[1]; AMP-adapted line PEX_5,1
same,Relative change in MIC (MIC of the AMP-adpated line / MIC of the ancestral strain),[1]; AMP-adapted line PEX_6,1.1
same,Relative change in MIC (MIC of the AMP-adpated line / MIC of the ancestral strain),[1]; AMP-adapted line PEX_7,1
same,Relative change in MIC (MIC of the AMP-adpated line / MIC of the ancestral strain),[1]; AMP-adapted line PR39_1,>4.30
same,Relative change in MIC (MIC of the AMP-adpated line / MIC of the ancestral strain),[1]; AMP-adapted line PR39_2,2.0736
same,Relative change in MIC (MIC of the AMP-adpated line / MIC of the ancestral strain),[1]; AMP-adapted line PR39_5,4.3
same,Relative change in MIC (MIC of the AMP-adpated line / MIC of the ancestral strain),[1]; AMP-adapted line PR39_7,1.9
same,Relative change in MIC (MIC of the AMP-adpated line / MIC of the ancestral strain),[1]; AMP-adapted line PR39_10,2.986
same,Relative change in MIC (MIC of the AMP-adpated line / MIC of the ancestral strain),[1]; AMP-adapted line PROA_2,1.2
same,Relative change in MIC (MIC of the AMP-adpated line / MIC of the ancestral strain),[1]; AMP-adapted line PROA_3,1
same,Relative change in MIC (MIC of the AMP-adpated line / MIC of the ancestral strain),[1]; AMP-adapted line PROA_7,1.1
same,Relative change in MIC (MIC of the AMP-adpated line / MIC of the ancestral strain),[1]; AMP-adapted line PROA_8,1.1
same,Relative change in MIC (MIC of the AMP-adpated line / MIC of the ancestral strain),[1]; AMP-adapted line PROA_9,1.1
same,Relative change in MIC (MIC of the AMP-adpated line / MIC of the ancestral strain),[1]; AMP-adapted line PXB_2,1.32
same,Relative change in MIC (MIC of the AMP-adpated line / MIC of the ancestral strain),[1]; AMP-adapted line PXB_5,1.1
same,Relative change in MIC (MIC of the AMP-adpated line / MIC of the ancestral strain),[1]; AMP-adapted line PXB_6,1
same,Relative change in MIC (MIC of the AMP-adpated line / MIC of the ancestral strain),[1]; AMP-adapted line PXB_8,1
same,Relative change in MIC (MIC of the AMP-adpated line / MIC of the ancestral strain),[1]; AMP-adapted line PXB_10,0.915
same,"Overexpression phenotype, Literature",[2],Resistance^2
